Measurements published in article PMC5663395, “Chemical Validation of Methionyl-tRNA Synthetase as a Druggable Target in Leishmania donovani” (ACS Infectious Diseases, 2017).
Values joined by “and” are separate entries in the source; they are usually repeats but may differ in a detail not shown here. Identical values can stand only once.

Columns and labels:
[1] = test system: Leishmania donovani liver parasite burden; assay: Mouse visceral leishmaniasis efficacy model; details: 50 mg/kg oral twice daily for 10 days, 50 mg/kg
LdMetRS = LdMetRS (Leishmania donovani, UniProt A0A3Q8IBX2); assay: LdMetRS biochemical enzyme assay (BIOMOL Green)
Sequence of LdMetRS (A0A3Q8IBX2 entry or part of it): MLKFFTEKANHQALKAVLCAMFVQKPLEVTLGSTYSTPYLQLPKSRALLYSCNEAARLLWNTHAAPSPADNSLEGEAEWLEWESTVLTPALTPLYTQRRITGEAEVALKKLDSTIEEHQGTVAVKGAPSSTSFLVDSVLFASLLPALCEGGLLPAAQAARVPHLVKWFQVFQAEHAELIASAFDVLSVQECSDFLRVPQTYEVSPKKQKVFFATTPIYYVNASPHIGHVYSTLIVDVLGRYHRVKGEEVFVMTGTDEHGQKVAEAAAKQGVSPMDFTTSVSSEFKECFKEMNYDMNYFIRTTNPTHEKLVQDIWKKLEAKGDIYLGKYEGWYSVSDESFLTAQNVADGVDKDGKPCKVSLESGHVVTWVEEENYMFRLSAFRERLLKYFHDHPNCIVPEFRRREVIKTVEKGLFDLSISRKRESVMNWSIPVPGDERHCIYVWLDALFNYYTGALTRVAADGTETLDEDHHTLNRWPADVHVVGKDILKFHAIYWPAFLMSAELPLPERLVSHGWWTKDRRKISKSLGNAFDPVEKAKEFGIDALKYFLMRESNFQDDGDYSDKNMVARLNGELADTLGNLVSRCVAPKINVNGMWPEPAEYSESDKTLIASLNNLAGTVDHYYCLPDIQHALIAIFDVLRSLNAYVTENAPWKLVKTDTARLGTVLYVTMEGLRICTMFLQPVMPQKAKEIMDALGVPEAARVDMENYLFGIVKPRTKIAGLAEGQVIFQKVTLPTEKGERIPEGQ
Procedure: LdMetRS Assay Development and Kinetic Parameter Determinations
Activity of the LdMetRS enzyme was determined by monitoring levels of pyrophosphate released during the first step of the enzymatic reaction. The pyrophosphate formed was converted to two inorganic phosphate molecules using a pyrophosphatase enzyme and levels of the resulting phosphate molecules measured using the BIOMOL® Green reagent (Enzo Life Sciences) 2.
Following optimization of the assay buffer and determination of the enzyme linearity, 384-well plate based assays were carried out at room temperature in a 50 μl reaction volume containing 30 mM Tris, pH 8.0, 140 mM NaCl, 30 mM KCl, 40 mM MgCl2, 0.01% (v/v) Brij-35, 1 mM DTT, 1 U/ml pyrophosphatase, 50 nM recombinant LdMetRS, and varying concentrations of substrates. Michaelis constants for the ATP and methionine substrates were determined in an end point assay using the above buffer and enzyme conditions. Data were fitted to the modified Michaelis-Menten equations […]
Equation 1 (Hill equation): […]
Equation 2 (High substrate inhibition Michaelis-Menten equation): […]
LdMetRS Inhibitor Studies
All test compounds were solubilized in 100% DMSO to a concentration of 10 mM. To generate IC50 data for the compounds, assay ready plates containing 10-point inhibitor curves (half-log serial dilutions) were prepared using an Echo® 550 (Labcyte).
Following preparation of the inhibitor curves, assays were carried out at room temperature in clear, flat bottom, polystyrene, 384-well plates (Greiner). Each assay was performed in a 50 μl reaction volume containing 30 mM Tris; pH 8.0, 140 mM NaCl, 30 mM KCl, 40 mM MgCl2, 0.01% (v/v) Brij-35, 1 mM DTT, 1 U/ml pyrophosphatase, 50 nM recombinant LdMetRS, 50 µM methionine and 100 µM […]
Assays were performed by adding 25 μl buffer with enzyme to assay plates (with buffer only added to ‘no enzyme’ control wells) before the reaction was initiated with the addition of a 25 μl mix containing methionine, ATP and pyrophosphatase to all wells. Following a 120 min reaction at room temperature the assay was stopped with the addition of 50 μl BIOMOL® Green. The BIOMOL® Green signal was allowed to develop for 30 min before the absorbance of each well was read at 650 nm using an EnVision multilabel plate reader (PerkinElmer Life Sciences). All liquid dispensing steps were carried out using a Thermo Scientific WellMate dispenser (Matrix).
ActivityBase from IDBS (version 8.0.5.4) was used for data processing and analysis. All IC50 curve fitting was undertaken using ActivityBase XE (version 7.7.1) from IDBS. A four-parameter logistic dose-response curve was utilized with prefit used for all four parameters.
For DDD806905 Kiapp determinations, data fitting to the Morrison equation (equation 3) was carried out using GraFit v6.0 (Erithacus Software). It should be noted that data for fitting to the Morrison equation was normalised to a ‘100 µM DDD806905’ control rather than a ‘no enzyme’ control as […]
Equation 3 (Morrison equation): […]
vi = K1 −−([ ] [ ]ET+IT+Ki)−([ ] [ ]ET+IT+i)[ ] [ ]TIE4T
LdMetRS Mode of Inhibition Studies
To establish the mode of inhibition of DDD806905, data sets (generated using the BIOMOL® Green assay platform previously described) were collected by varying both the inhibitor and substrate concentrations. Using GraFit v6.0 (Erithacus Software) each data set was individually fitted to the Michaelis-Menten equation or the modified high substrate inhibition Michaelis-Menten equation described above (equation 2), and the resulting Lineweaver-Burk plots were examined for diagnostic […]
Data sets were then globally fitted to the appropriate model (with equations 4 and 5 used for […]
If more than one model appeared possible, then data were fitted to both and examined for significance using the F-test function in GraFit.

THP-1 lysosomes = assay: Lysosomotropism assay (LysoTracker Red competition); type: cell-based, human; details: PMA-differentiated THP-1 cells, 30 min
Procedure: calculated, both in terms of pEC50 values. MIC (minimum inhibitory concentration) values are defined as the lowest concentration tested at which maximal inhibition is reached.
THP-1 cells were differentiated in 96-well plates with PMA as described above. Following differentiation the cells were treated for 30 min with dose-response curves of test compounds in presence of 100 nM LysoTracker Red DND-99 (Thermo Fisher) and 5 µg/ml Hoechst 33342. Next cells were washed 3 times with Hanks Buffered Saline Solution (Gibco) and imaged on a Perkin Elmer Operetta system. An image analysis algorithm to measure mean Lysotracker Red DND-99 intensity per cell was developed in Columbus. Mean Intensity was normalised using a no dye control (100% effect) and DMSO treated wells stained with Lysotracker Red DND-99 (0% effect control). Dose-response curves were fitted for the test compounds using a four-parameter equation (equation 5 above) and constrained to 0 and 100% where necessary.
To measure the pKa of DDD806905, a fast UV-metric method was performed using a Sirius T3 instrument (Sirius Analytical, U.K.). The calculation of the pKa was determined using the Sirius T3 refine software (Sirius Analytical, U.K.). In brief, the UV-metric pKa method is based on measuring pH during an acid-base titration and monitoring UV absorbance shift. The ionisation curve (Bjerrum curve) was then used to determine the pH where exactly 50 % of neutral and 50 % of ionised species was present. DDD806905 must be fully dissolved throughout the titration and so the titration is set to start at the pH where DDD806905 is in its fully ionised state. The appearance of precipitate was monitored throughout the experiment by a turbidity sensing device. […] The pKas of DDD806905 was determined at the pH where there was maximal change in UV absorbance with respect to pH. […]
LogD7.4 values were quantified using a Sirius T3 instrument (Sirius Analytical, U.K.). […] The instrument software calculated the pH of each data point using mass and charge balance equations and then fitted this theoretical data to the experimental data. […]

[2] = test system: mitochondrial protein synthesis in H9C2 cells; assay: Mitochondrial protein synthesis assay (COX-1/SDH-A In-Cell ELISA); type: cell-based; details: COX-1/SDH-A ratio, average of three experiments

`Cl.Cl.O=c1nc(NCCCNCc2cc3c(Cl)cc(Cl)cc3[nH]2)[nH]c2ccccc12` [DDD806905, 2-((3-(((4,6-dichloro-1H-indol-2-yl)methyl)amino)propyl)amino)quinazolin-4(1H)-one dihydrochloride] was tested, and the “reduction (knock-down) of liver parasite burden (LDU) vs vehicle” value [1] was 19% and 19.4%, the “mode of inhibition with respect to ATP” value (LdMetRS) was “mixed inhibition” and the “mode of inhibition with respect to methionine” value (LdMetRS) was “competitive inhibition”. It also gave a Ki (LdMetRS; Ki app (Morrison equation), active enzyme concentration 39 nM as constant) of 41 nM, a Ki (LdMetRS; Ki, competitive inhibition with respect to methionine, global competitive inhibition model, Ki ± SE) of 18 nM and a Ki (LdMetRS; Ki, mixed inhibition with respect to ATP, mixed inhibition model, Ki ± SE) of 21 nM. For the same molecule, the IC50 (LdMetRS; LdMetRS IC50 (μM), Table 1) was 0.09 µM, the IC50 (LdMetRS; LdMetRS IC50, 50 nM LdMetRS, 50 μM methionine, 100 μM ATP) was 0.094 µM and the IC50 (LdMetRS; LdMetRS IC50, Fig S5A: methionine 50 µM, ATP 500 µM) was 0.11 µM. For the same molecule, the IC50 (LdMetRS; LdMetRS IC50, Fig S5A: methionine 500 µM, ATP 500 µM) was 0.433 µM, the IC50 (LdMetRS; LdMetRS IC50, Fig S5B: ATP 50 µM, methionine 500 µM) was 0.098 µM and the IC50 (LdMetRS; LdMetRS IC50, Fig S5B: ATP 500 µM, methionine 500 µM) was 0.38 µM. For the same molecule, the IC50 (LdMetRS; LdMetRS IC50, Fig S5C: methionine and ATP both 50 µM) was 0.037 µM, the IC50 (LdMetRS; LdMetRS IC50, Fig S5C: methionine and ATP both 500 µM) was 0.433 µM and the “Ki′ (ATP mode of inhibition study)” value (LdMetRS; mixed inhibition model, ATP as variable substrate) was 227 ± 23 nM. The “competition with lysotracker red accumulation in THP-1 lysosomes” value (THP-1 lysosomes) was “did compete with lysotracker red accumulation”, the IC50 ([2]; H9C2 cells) was 1700 nM and the IC50 ([2]; Rattus norvegicus, H9c2, H9C2 cells) was 1680 nM.
